The record followed here is BindingDB's records for patent US20240425513 (Carmot Therapeutics, 2024).

Each structure is given as a SMILES string.

By IC50 is commonly meant the concentration needed to halve the response being measured. The low end stands for greater potency, the high end for weaker potency.

The experiment has as its target T1, Ubiquitin carboxyl-terminal hydrolase 28 (Homo sapiens, UniProt Q96RU2).
T1 sequence (Q96RU2 whole entry): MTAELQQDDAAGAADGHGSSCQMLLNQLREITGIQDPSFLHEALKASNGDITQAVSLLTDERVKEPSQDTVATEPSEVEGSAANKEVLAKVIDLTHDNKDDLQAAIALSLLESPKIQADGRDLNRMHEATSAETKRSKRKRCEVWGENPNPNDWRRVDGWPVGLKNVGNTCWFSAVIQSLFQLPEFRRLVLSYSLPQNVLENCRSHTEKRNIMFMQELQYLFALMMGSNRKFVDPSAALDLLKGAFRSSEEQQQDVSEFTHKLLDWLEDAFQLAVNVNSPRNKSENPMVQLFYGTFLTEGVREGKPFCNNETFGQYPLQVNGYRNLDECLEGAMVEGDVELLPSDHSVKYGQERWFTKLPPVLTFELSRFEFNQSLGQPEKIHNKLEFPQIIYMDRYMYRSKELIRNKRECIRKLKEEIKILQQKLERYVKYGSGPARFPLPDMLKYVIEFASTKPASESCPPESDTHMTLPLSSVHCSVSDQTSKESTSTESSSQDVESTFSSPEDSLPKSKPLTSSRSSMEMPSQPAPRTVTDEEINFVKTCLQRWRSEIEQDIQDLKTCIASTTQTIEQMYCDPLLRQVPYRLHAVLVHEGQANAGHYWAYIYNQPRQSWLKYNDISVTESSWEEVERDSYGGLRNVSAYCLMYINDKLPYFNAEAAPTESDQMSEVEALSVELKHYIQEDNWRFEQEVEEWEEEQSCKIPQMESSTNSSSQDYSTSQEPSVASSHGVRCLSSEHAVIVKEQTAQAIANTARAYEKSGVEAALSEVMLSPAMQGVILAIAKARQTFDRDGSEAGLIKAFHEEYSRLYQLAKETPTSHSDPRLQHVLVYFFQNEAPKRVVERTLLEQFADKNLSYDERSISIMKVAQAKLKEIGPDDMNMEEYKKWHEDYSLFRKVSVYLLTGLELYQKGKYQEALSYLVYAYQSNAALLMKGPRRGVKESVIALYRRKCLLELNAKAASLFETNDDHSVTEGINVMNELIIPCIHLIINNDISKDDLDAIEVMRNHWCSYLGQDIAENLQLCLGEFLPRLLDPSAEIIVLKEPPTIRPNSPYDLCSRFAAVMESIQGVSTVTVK
Kind of experiment: Ubiquitin-Rhodamine 110 Assay. As to the method: Enzyme (His6 USP28, BostonBiochem, #E-570) concentration and incubation times were optimized for the maximal signal to background while maintaining the initial velocity conditions at a fixed substrate concentration. […] 2 μl of 4× enzyme was added to assay plates (pre stamped with compound) and incubated for 2 h at room temperature. […] of 4× substrate was subsequently added to the assay plates and incubated for 2 h at room temperature.

Compound `CC(Oc1ccc(-c2nc(Cc3cccc(Cl)c3)no2)cc1)C(=O)N[C@@H]1C[C@@H](C)N(C#N)C1` (stereo partly specified) [US20240425513, Example 11] displayed a 50% inhibitory concentration (IC50) above 1000 nM.
